Experimental data taken from patent US9629364B2, “Synergistic weed control from applications of aminopyralid and clopyralid” (Dow AgroSciences LLC, priority 2012, dated 2017).
Counter-ions that a name gives are not always drawn.

Test system: black nightshade (Solanam nigram)
Test: Field trial, post-emergence foliar application, weed control rating 0-100%
Format: in vivo
Conditions: SOLNI, 56 days after first application, with 0.5 L/ha ACTIROB
Source text: The (a) aminopyralid or an agriculturally acceptable salt or ester thereof is mixed with or applied in combination with (b) clopyralid or an agriculturally acceptable salt or ester thereof in an amount sufficient to induce a synergistic herbicidal effect. […] As described in the Herbicide Handbook of the Weed Science Society of America, Ninth Edition, 2007, p. 429, “‘synergism’ [is] an interaction of two or more factors such that the effect when combined is greater than the predicted effect based on the response to each factor applied separately.” Synergistic in the herbicide context can mean that the use of (a) and (b) as defined above results in an increased weed control effect compared to the weed control effects that are possible with the use of (a) or (b) alone. In some embodiments, the damage or injury to the undesired vegetation caused by the compositions and methods disclosed herein is evaluated using a scale from 0% to 100%, when compared with the untreated control vegetation, wherein 0% indicates no damage to the undesired vegetation and 100% indicates complete destruction of the undesired vegetation. […] 22 (1967) […]
Colby's equation was used to determine the herbicidal effects expected from the mixtures, as described above. The results were measured at 56 days after the first application of the compositions. […]

| Compound | Mean % weed control (90 g ae/ha applied alone) | Mean % weed control (1 g ae/ha applied alone) |
| --- | --- | --- |
| O=C(O)c1nc(Cl)ccc1Cl [Clopyralid-olamine, 3,6-dichloro-2-pyridinecarboxylic acid] | 37.5% | – |
| Nc1cc(Cl)nc(C(=O)O)c1Cl [Aminopyralid Potassium Salt, 4-amino-3,6-dichloro-2-pyridinecarboxylic acid] | – | 0% |
